In patent US11021467B2, “Phosphatidylinositol 3-kinase inhibitors” (Gilead Sciences, Inc., priority 2014, dated 2021):
pIC50: −log10 of the molar value.

Tests used:
Test in all cases: TR-FRET enzymatic activity assay against PI3K isoforms
Type in all cases: biochemical
PI3Kδ = PI3Kδ (Homo sapiens (Human), UniProt O00329); settings: 2×Km ATP, 30 minutes at 25° C.
Source text: (§1) The compounds of formula (I) were characterized for their enzymatic activity against the PI3K isoforms. […] TR-FRET monitored the formation of 3,4,5-inositol triphosphate molecule that competed with fluorescently labeled PIP3 for binding to the GRP-1 pleckstrin homology domain protein.

PI3Kγ = PI3Kγ (Homo sapiens (Human), UniProt P48736); settings: 2×Km ATP, 30 minutes at 25° C.
Source text: as §1

PI3Kβ = PI3Kβ (Homo sapiens (Human), UniProt P42338); settings: PI3Kβ, TR-FRET, 2×Km ATP, 30 minutes at 25° C.
Source text: as §1

Chain of PI3Kγ (P48736 whole entry): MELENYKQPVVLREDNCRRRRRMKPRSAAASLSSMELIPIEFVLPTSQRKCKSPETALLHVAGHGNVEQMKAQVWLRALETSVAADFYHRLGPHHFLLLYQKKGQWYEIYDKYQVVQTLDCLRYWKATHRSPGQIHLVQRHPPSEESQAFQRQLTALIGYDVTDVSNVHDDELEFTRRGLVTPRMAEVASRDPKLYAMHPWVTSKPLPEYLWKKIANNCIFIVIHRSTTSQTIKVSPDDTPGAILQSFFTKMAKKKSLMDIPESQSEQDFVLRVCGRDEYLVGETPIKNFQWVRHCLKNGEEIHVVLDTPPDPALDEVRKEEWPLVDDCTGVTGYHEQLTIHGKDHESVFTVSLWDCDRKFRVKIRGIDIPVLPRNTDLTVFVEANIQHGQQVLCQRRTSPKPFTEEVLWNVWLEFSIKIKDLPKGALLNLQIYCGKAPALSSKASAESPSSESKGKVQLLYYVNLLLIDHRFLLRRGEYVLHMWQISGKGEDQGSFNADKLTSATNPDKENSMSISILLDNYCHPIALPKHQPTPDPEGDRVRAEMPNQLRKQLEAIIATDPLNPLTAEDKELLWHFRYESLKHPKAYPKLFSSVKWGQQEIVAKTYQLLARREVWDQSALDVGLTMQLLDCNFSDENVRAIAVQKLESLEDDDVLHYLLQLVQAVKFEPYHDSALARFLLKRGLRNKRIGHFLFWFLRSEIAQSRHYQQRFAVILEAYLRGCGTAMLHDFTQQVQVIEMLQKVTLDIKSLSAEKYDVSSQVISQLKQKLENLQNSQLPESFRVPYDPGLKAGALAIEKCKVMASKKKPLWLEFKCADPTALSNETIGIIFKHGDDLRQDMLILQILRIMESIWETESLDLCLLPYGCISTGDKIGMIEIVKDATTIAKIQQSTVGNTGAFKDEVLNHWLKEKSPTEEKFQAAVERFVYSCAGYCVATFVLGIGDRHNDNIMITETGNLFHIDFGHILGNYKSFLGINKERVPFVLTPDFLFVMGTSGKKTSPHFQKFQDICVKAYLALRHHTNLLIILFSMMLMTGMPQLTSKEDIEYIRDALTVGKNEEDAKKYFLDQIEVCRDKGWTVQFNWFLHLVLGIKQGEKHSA
Chain of PI3Kβ (P42338 whole entry): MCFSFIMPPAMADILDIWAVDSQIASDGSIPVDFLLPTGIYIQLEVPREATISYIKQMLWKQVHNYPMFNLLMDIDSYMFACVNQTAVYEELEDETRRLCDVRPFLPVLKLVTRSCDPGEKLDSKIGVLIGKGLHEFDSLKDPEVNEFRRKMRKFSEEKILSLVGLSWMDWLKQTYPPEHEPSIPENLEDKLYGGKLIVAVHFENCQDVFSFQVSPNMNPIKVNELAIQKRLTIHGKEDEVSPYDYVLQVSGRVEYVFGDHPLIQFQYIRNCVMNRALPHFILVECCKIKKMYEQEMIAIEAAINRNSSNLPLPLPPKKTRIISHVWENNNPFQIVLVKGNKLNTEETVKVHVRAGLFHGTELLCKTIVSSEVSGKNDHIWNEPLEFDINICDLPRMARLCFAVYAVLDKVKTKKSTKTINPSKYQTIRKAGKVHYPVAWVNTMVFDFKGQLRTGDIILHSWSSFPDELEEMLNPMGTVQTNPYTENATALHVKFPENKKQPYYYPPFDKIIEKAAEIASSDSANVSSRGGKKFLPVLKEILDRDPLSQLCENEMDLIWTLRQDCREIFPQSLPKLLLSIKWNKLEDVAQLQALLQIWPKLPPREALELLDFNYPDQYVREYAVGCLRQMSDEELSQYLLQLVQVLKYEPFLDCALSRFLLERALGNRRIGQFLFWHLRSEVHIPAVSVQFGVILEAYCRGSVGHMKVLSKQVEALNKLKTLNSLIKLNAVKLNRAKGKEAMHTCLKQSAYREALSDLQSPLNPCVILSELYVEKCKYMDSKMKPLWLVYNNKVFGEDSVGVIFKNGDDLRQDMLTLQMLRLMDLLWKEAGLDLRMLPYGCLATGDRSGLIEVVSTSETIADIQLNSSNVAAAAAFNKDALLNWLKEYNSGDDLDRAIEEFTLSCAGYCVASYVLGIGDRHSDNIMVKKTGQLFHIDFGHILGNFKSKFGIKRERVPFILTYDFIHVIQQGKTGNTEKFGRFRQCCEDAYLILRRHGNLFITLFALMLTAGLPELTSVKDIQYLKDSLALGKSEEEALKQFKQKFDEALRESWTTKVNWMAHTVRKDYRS
Chain of PI3Kβ (P27986 whole entry partner): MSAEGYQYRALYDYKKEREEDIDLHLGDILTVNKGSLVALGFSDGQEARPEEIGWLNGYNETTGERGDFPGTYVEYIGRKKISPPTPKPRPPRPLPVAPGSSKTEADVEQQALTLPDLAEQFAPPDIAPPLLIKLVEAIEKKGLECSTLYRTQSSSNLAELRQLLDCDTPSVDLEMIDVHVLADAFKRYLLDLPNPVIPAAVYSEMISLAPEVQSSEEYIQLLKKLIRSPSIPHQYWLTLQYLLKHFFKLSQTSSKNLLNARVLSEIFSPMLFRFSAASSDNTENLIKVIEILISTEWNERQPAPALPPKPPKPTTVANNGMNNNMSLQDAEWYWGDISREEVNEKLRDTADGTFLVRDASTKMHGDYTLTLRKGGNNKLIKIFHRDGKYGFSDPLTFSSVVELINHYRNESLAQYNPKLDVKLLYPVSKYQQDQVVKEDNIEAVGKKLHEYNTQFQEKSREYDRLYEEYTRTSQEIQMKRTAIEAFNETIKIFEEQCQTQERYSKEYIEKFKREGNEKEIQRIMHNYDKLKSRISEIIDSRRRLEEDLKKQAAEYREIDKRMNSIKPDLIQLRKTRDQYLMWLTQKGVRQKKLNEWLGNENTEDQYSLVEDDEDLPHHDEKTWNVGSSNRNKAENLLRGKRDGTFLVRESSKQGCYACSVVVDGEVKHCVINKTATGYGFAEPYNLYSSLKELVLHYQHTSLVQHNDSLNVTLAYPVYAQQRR
Chain of PI3Kδ (O00329 whole entry, the tested form may be a part, canonical isoform): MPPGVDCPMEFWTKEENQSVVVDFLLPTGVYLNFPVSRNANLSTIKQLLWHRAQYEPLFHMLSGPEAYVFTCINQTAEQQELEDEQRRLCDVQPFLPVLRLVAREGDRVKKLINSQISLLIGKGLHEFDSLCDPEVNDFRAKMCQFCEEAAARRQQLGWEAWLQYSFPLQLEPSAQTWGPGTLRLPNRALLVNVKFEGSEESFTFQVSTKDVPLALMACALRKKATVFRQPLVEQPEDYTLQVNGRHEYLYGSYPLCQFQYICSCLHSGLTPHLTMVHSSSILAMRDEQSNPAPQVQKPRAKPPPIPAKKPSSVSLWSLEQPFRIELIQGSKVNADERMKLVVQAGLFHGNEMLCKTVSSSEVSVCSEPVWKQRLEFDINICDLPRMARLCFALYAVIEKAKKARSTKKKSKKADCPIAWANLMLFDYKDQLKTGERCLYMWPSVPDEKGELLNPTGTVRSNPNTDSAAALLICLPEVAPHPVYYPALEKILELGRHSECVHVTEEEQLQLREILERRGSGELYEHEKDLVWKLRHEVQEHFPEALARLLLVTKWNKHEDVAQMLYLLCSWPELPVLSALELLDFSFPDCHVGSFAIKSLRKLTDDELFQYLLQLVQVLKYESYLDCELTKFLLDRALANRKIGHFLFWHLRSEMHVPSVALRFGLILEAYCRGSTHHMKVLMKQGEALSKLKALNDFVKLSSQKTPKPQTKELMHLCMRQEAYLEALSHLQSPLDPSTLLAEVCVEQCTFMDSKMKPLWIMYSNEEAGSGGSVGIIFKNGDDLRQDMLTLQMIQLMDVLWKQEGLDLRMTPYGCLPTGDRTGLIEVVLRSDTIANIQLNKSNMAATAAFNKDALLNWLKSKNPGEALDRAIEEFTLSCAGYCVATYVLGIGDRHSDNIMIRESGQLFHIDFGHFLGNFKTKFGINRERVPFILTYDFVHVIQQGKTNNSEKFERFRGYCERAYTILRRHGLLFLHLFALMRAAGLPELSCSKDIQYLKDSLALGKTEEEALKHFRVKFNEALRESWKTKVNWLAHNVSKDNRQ
Chain of PI3Kδ (P27986 whole entry partner, the tested form may be a part, canonical isoform): as the sequence (P27986 whole entry partner) above

SMILES | pIC50 (PI3Kδ) | pIC50 (PI3Kγ) | pIC50 (PI3Kβ)
N#Cc1c(N)nc(N)nc1N[C@H](c1nc2c(Cl)ccc(Cl)c2c(=O)n1[C@H]1C[C@H](O)C1)C1CC1 [Compound 100, 2,4-diamino-6-(((S)-cyclopropyl(5,8-dichloro-3-((trans)-3-hydroxycyclobutyl)-4-oxo-3,4-dihydroquinazolin-2-yl)methyl)amino)pyrimidine-5-carbonitrile] | 8.52 | 5.54 | 7.36
C[C@H](Nc1nc(N)nc(N)c1C#N)c1nc2c(Cl)ccc(Cl)c2c(=O)n1[C@H]1C[C@H](O)C1 [Compound 101, 2,4-diamino-6-(((S)-1-(5,8-dichloro-3-((trans)-3-hydroxycyclobutyl)-4-oxo-3,4-dihydroquinazolin-2-yl)ethyl)amino)pyrimidine-5-carbonitrile] | 7.92 | 5.49 | 6.85
N#Cc1c(N)nc(N)nc1N[C@H](c1nc2c(Cl)cc(F)cc2c(=O)n1[C@H]1C[C@@H](O)C1)C1CC1 [Compound 102, 2,4-diamino-6-(((S)-(8-chloro-6-fluoro-3-((cis)-3-hydroxycyclobutyl)-4-oxo-3,4-dihydroquinazolin-2-yl)(cyclopropyl)methyl)amino)pyrimidine-5-carbonitrile] | 8.70 | 5.96 | 7.18
C[C@H](Nc1nc(N)nc(N)c1C#N)c1nc2cccc(Cl)c2c(=O)n1CCC#N [Compound 104, (S)-2,4-diamino-6-((1-(5-chloro-3-(2-cyanoethyl)-4-oxo-3,4-dihydroquinazolin-2-yl)ethyl)amino)pyrimidine-5-carbonitrile] | 8.05 | 7.11 | 7.24
N#CCCn1c([C@@H](Nc2nc(N)nc(N)c2C#N)C2CC2)nc2cccc(Cl)c2c1=O [Compound 112, (S)-2,4-diamino-6-(((5-chloro-3-(2-cyanoethyl)-4-oxo-3,4-dihydroquinazolin-2-yl)(cyclopropyl)methyl)amino)pyrimidine-5-carbonitrile] | 8.52 | 7.21 | 8.10
N#CCCCn1c([C@@H](Nc2nc(N)nc(N)c2C#N)C2CC2)nc2cccc(Cl)c2c1=O [Compound 113, (S)-2,4-diamino-6-(((5-chloro-3-(3-cyanopropyl)-4-oxo-3,4-dihydroquinazolin-2-yl)(cyclopropyl)methyl)amino)pyrimidine-5-carbonitrile] | 9.00 | 7.23 | 7.77
N#CCCCCn1c([C@@H](Nc2nc(N)nc(N)c2C#N)C2CC2)nc2cccc(Cl)c2c1=O [Compound 114, (S)-2,4-diamino-6-(((5-chloro-3-(4-cyanobutyl)-4-oxo-3,4-dihydroquinazolin-2-yl)(cyclopropyl)methyl)amino)pyrimidine-5-carbonitrile] | 9.10 | 6.89 | 7.92
CC[C@H](Nc1nc(N)nc(N)c1C#N)c1nc2cccc(Cl)c2c(=O)n1CCCC#N [Compound 115, (S)-2,4-diamino-6-((1-(5-chloro-3-(3-cyanopropyl)-4-oxo-3,4-dihydroquinazolin-2-yl)propyl)amino)pyrimidine-5-carbonitrile] | 8.05 | 6.72 | 6.72
CC[C@H](Nc1nc(N)nc(N)c1C#N)c1nc2cccc(Cl)c2c(=O)n1CCCCC#N [Compound 116, (S)-2,4-diamino-6-((1-(5-chloro-3-(4-cyanobutyl)-4-oxo-3,4-dihydroquinazolin-2-yl)propyl)amino)pyrimidine-5-carbonitrile] | 8.30 | 6.27 | 6.82
CC[C@H](Nc1nc(N)nc(N)c1C#N)c1nc2cccc(Cl)c2c(=O)n1CCCS(C)(=O)=O [Compound 117, (S)-2,4-diamino-6-((1-(5-chloro-3-(3-(methylsulfonyl)propyl)-4-oxo-3,4-dihydroquinazolin-2-yl)propyl)amino)pyrimidine-5-carbonitrile] | 7.68 | 5.52 | 6.60
CS(=O)(=O)CCCn1c([C@@H](Nc2nc(N)nc(N)c2C#N)C2CC2)nc2cccc(Cl)c2c1=O [Compound 118, (S)-2,4-diamino-6-(((5-chloro-3-(3-(methylsulfonyl)propyl)-4-oxo-3,4-dihydroquinazolin-2-yl)(cyclopropyl)methyl)amino)pyrimidine-5-carbonitrile] | 8.70 | 6.24 | 7.89
CS(=O)(=O)CCCn1c([C@@H](Nc2nc(N)nc(N)c2C#N)C2CC2)nc2c(Cl)cc(F)cc2c1=O [Compound 120, (S)-2,4-diamino-6-(((8-chloro-6-fluoro-3-(3-(methylsulfonyl)propyl)-4-oxo-3,4-dihydroquinazolin-2-yl)(cyclopropyl)methyl)amino)pyrimidine-5-carbonitrile] | 8.10 | 5.72 | 7.52
N#Cc1c(N)nc(N)nc1N[C@H](c1nc2c(Cl)cc(F)cc2c(=O)n1CCCC(N)=O)C1CC1 [Compound 121, (S)-4-(8-chloro-2-(cyclopropyl((2,6-diamino-5-cyanopyrimidin-4-yl)amino)methyl)-6-fluoro-4-oxoquinazolin-3(4H)-yl)butanamide] | 8.70 | 6.12 | 8.05
CS(=O)(=O)CCCCn1c([C@@H](Nc2nc(N)nc(N)c2C#N)C2CC2)nc2cccc(Cl)c2c1=O [Compound 122, (S)-2,4-diamino-6-(((5-chloro-3-(4-(methylsulfonyl)butyl)-4-oxo-3,4-dihydroquinazolin-2-yl)(cyclopropyl)methyl)amino)pyrimidine-5-carbonitrile] | 9.15 | 6.92 | 7.64
C[C@H](Nc1nc(N)nc(N)c1C#N)c1nc2cccc(Cl)c2c(=O)n1C[C@H]1CCNC1 [Compound 125, 2,4-diamino-6-(((S)-1-(5-chloro-4-oxo-3-((S)-pyrrolidin-3-ylmethyl)-3,4-dihydroquinazolin-2-yl)ethyl)amino)pyrimidine-5-carbonitrile] | 8.52 | 5.64 | 7.31
C[C@H](Nc1nc(N)nc(N)c1C#N)c1nc2cccc(Cl)c2c(=O)n1C[C@@H]1CCNC1 [Compound 126, 2,4-diamino-6-(((S)-1-(5-chloro-4-oxo-3-((R)-pyrrolidin-3-ylmethyl)-3,4-dihydroquinazolin-2-yl)ethyl)amino)pyrimidine-5-carbonitrile] | 9.05 | 5.60 | 7.62

Now from value to compound:

pIC50 (PI3Kδ) | pIC50 (PI3Kγ) | pIC50 (PI3Kβ) | SMILES
8.30 | 5.59 | 7.68 | C[C@H](Nc1nc(N)nc(N)c1C#N)c1nc2c(Cl)ccc(Cl)c2c(=O)n1[C@H]1C[C@@H](O)C1 [Compound 103, 2,4-diamino-6-(((S)-1-(5,8-dichloro-3-((cis)-3-hydroxycyclobutyl)-4-oxo-3,4-dihydroquinazolin-2-yl)ethyl)amino)pyrimidine-5-carbonitrile]
8.05 | 5.08 | 6.09 | COCCCn1c([C@H](C)Nc2ncnc(N)c2C#N)nc2cccc(Cl)c2c1=O [Compound 105, (S)-4-amino-6-((1-(5-chloro-3-(3-methoxypropyl)-4-oxo-3,4-dihydroquinazolin-2-yl)ethyl)amino)pyrimidine-5-carbonitrile]
8.10 | < 5.00 | 6.23 | COCCCn1c([C@H](C)Nc2ncnc(N)c2C#N)nc2c(Cl)ccc(Cl)c2c1=O [Compound 106, (S)-4-amino-6-((1-(5,8-dichloro-3-(3-methoxypropyl)-4-oxo-3,4-dihydroquinazolin-2-yl)ethyl)amino)pyrimidine-5-carbonitrile]
8.52 | 5.77 | 7.09 | COCCCn1c([C@H](C)Nc2nc(N)nc(N)c2C#N)nc2c(Cl)ccc(Cl)c2c1=O [Compound 107, (S)-2,4-diamino-6-((1-(5,8-dichloro-3-(3-methoxypropyl)-4-oxo-3,4-dihydroquinazolin-2-yl)ethyl)amino)pyrimidine-5-carbonitrile]
7.41 | ≤ 5.00 | 5.70 | COCCCn1c([C@H](C)Nc2ncnc(N)c2C#N)nc2c(F)ccc(F)c2c1=O [Compound 108, (S)-4-amino-6-((1-(5,8-difluoro-3-(3-methoxypropyl)-4-oxo-3,4-dihydroquinazolin-2-yl)ethyl)amino)pyrimidine-5-carbonitrile]
7.85 | 5.66 | 6.28 | COCCCn1c([C@H](C)Nc2nc(N)nc(N)c2C#N)nc2c(F)ccc(F)c2c1=O [Compound 109, (S)-2,4-diamino-6-((1-(5,8-difluoro-3-(3-methoxypropyl)-4-oxo-3,4-dihydroquinazolin-2-yl)ethyl)amino)pyrimidine-5-carbonitrile]
8.40 | 6.74 | 7.38 | C[C@H](Nc1nc(N)nc(N)c1C#N)c1nc2cccc(Cl)c2c(=O)n1CCCC#N [Compound 110, (S)-2,4-diamino-6-((1-(5-chloro-3-(3-cyanopropyl)-4-oxo-3,4-dihydroquinazolin-2-yl)ethyl)amino)pyrimidine-5-carbonitrile]
8.52 | 6.28 | 7.40 | C[C@H](Nc1nc(N)nc(N)c1C#N)c1nc2cccc(Cl)c2c(=O)n1CCCS(C)(=O)=O [Compound 111, (S)-2,4-diamino-6-((1-(5-chloro-3-(3-(methylsulfonyl)propyl)-4-oxo-3,4-dihydroquinazolin-2-yl)ethyl)amino)pyrimidine-5-carbonitrile]
8.70 | 5.96 | 8.10 | CS(=O)(=O)CCCn1c([C@@H](Nc2nc(N)nc(N)c2C#N)C2CC2)nc2c(Cl)ccc(Cl)c2c1=O [Compound 119, (S)-2,4-diamino-6-((cyclopropyl(5,8-dichloro-3-(3-(methylsulfonyl)propyl)-4-oxo-3,4-dihydroquinazolin-2-yl)methyl)amino)pyrimidine-5-carbonitrile]
